Counter-ions that a name gives are not always drawn.
How the values were obtained:
NCI-H446 = assay: Cytotoxicity against human NCI-H446 cells assessed as inhibition of cell growth incubated for 48 hrs by MTT assay; format: functional, cell-based; details: NCI-H446, 48 h
NCI-H3255 = assay: Cytotoxicity against human NCI-H3255 cells assessed as inhibition of cell growth incubated for 48 hrs by MTT assay; format: functional, cell-based; details: NCI-H3255, 48 h
A549 = assay: Cytotoxicity against human A549 cells assessed as inhibition of cell growth incubated for 48 hrs by MTT assay; format: functional, cell-based; details: A549, 48 h
PC-3 [1] = assay: Cytotoxicity against human PC-3 cells assessed as inhibition of cell growth incubated for 48 hrs by MTT assay; format: functional, cell-based; details: PC-3, 48 h
PC-3 [2] = assay: Induction of apoptosis in human PC-3 cells assessed as necrotic cells at 2.5 uM measured after 24 hrs by annexinV-FITC staining based flow cytometric analysis (reference value: 5.09 %); format: functional
PC-3 [3] = assay: Induction of apoptosis in human PC-3 cells assessed as late apoptotic cells up to 10 uM measured at 12 hrs by annexinV-FITC staining based flow cytometric analysis (reference value: 4.64 %); format: functional
PC-3 [4] = assay: Induction of apoptosis in human PC-3 cells assessed as viable cells at 5 uM measured after 24 hrs by annexinV-FITC staining based flow cytometric analysis (reference value: 92.9 %); format: functional; details: read-out: Activity
PC-3 [5] = assay: Induction of apoptosis in human PC-3 cells assessed as late apoptotic cells up to 10 uM measured at 24 hrs by annexinV-FITC staining based flow cytometric analysis (reference value: 4.64 %); format: functional
PC-3 [6] = assay: Induction of apoptosis in human PC-3 cells assessed as early apoptotic cells up to 10 uM measured at 8 hrs by annexinV-FITC staining based flow cytometric analysis (reference value: 0.55 %); format: functional
PC-3 [7] = assay: Induction of apoptosis in human PC-3 cells assessed as late apoptotic cells at 2.5 uM measured after 24 hrs by annexinV-FITC staining based flow cytometric analysis (reference value: 1.87 %); format: functional
PC-3 [8] = assay: Induction of apoptosis in human PC-3 cells assessed as necrotic cells at 5 uM measured after 24 hrs by annexinV-FITC staining based flow cytometric analysis (reference value: 5.09 %); format: functional
PC-3 [9] = assay: Induction of apoptosis in human PC-3 cells assessed as early apoptotic cells up to 10 uM measured at 4 hrs by annexinV-FITC staining based flow cytometric analysis (reference value: 0.55 %); format: functional
PC-3 [10] = assay: Induction of apoptosis in human PC-3 cells assessed as increase in ROS levels at measured after 24 hrs by DCFH-DA staining based flow cytometry assay; format: functional, cell-based; details: dose <= 10.0 µM
PC-3 [11] = assay: Induction of apoptosis in human PC-3 cells assessed as viable cells up to 10 uM measured at 2 hrs by annexinV-FITC staining based flow cytometric analysis (reference value: 91.1 %); format: functional
PC-3 [12] = assay: Induction of apoptosis in human PC-3 cells assessed as early apoptotic cells up to 10 uM measured at 12 hrs by annexinV-FITC staining based flow cytometric analysis (reference value: 0.55 %); format: functional
PC-3 [13] = assay: Induction of apoptosis in human PC-3 cells assessed as early apoptotic cells up to 10 uM measured at 2 hrs by annexinV-FITC staining based flow cytometric analysis (reference value: 0.55 %); format: functional
PC-3 [14] = assay: Induction of apoptosis in human PC-3 cells assessed as viable cells up to 10 uM measured at 8 hrs by annexinV-FITC staining based flow cytometric analysis (reference value: 91.1 %); format: functional
PC-3 [15] = assay: Induction of apoptosis in human PC-3 cells assessed as viable cells up to 10 uM measured att 12 hrs by annexinV-FITC staining based flow cytometric analysis (reference value: 91.1 %); format: functional
PC-3 [16] = assay: Induction of apoptosis in human PC-3 cells assessed as viable cells at 10 uM measured after 24 hrs by annexinV-FITC staining based flow cytometric analysis (reference value: 92.9 %); format: functional; details: read-out: Activity
PC-3 [17] = assay: Induction of apoptosis in human PC-3 cells assessed as late apoptotic cells up to 10 uM measured at 2 hrs by annexinV-FITC staining based flow cytometric analysis (reference value: 4.64 %); format: functional
PC-3 [18] = assay: Induction of apoptosis in human PC-3 cells assessed as necrotic cells up to 10 uM measured at 4 hrs by annexinV-FITC staining based flow cytometric analysis (reference value: 3.69 %); format: functional
PC-3 [19] = assay: Induction of apoptosis in human PC-3 cells assessed as viable cells up to 10 uM measured at 4 hrs by annexinV-FITC staining based flow cytometric analysis (reference value: 91.1 %); format: functional
PC-3 [20] = assay: Induction of apoptosis in human PC-3 cells assessed as viable cells at 2.5 uM measured after 24 hrs by annexinV-FITC staining based flow cytometric analysis (reference value: 92.9 %); format: functional; details: read-out: Activity
PC-3 [21] = assay: Induction of apoptosis in human PC-3 cells assessed as late apoptotic cells up to 10 uM measured at 4 hrs by annexinV-FITC staining based flow cytometric analysis (reference value: 4.64 %); format: functional
PC-3 [22] = assay: Induction of apoptosis in human PC-3 cells assessed as necrotic cells up to 10 uM measured at 8 hrs by annexinV-FITC staining based flow cytometric analysis (reference value: 3.69 %); format: functional
PC-3 [23] = assay: Induction of apoptosis in human PC-3 cells assessed as early apoptotic cells up to 10 uM measured at 24 hrs by annexinV-FITC staining based flow cytometric analysis (reference value: 0.55 %); format: functional
PC-3 [24] = assay: Induction of apoptosis in human PC-3 cells assessed as necrotic cells at 10 uM measured after 24 hrs by annexinV-FITC staining based flow cytometric analysis (reference value: 5.09 %); format: functional
PC-3 [25] = assay: Induction of mitochondrial membrane potential loss in human PC-3 cells at 4 uM measured after 24 hrs by JC-1 dye-based flow cytometric analysis (reference value: 100 %); format: functional
PC-3 [26] = assay: Induction of apoptosis in human PC-3 cells assessed as late apoptotic cells at 10 uM measured after 24 hrs by annexinV-FITC staining based flow cytometric analysis (reference value: 1.87 %); format: functional
PC-3 [27] = assay: Induction of mitochondrial membrane potential loss in human PC-3 cells at 2 uM measured after 24 hrs by JC-1 dye-based flow cytometric analysis (reference value: 100 %); format: functional
PC-3 [28] = assay: Induction of apoptosis in human PC-3 cells assessed as late apoptotic cells up to 10 uM measured at 8 hrs by annexinV-FITC staining based flow cytometric analysis (reference value: 4.64 %); format: functional
PC-3 [29] = assay: Induction of mitochondrial membrane potential loss in human PC-3 cells at 6 uM measured after 24 hrs by JC-1 dye-based flow cytometric analysis (reference value: 100 %); format: functional
PC-3 [30] = assay: Induction of apoptosis in human PC-3 cells assessed as early apoptotic cells at 5 uM measured after 24 hrs by annexinV-FITC staining based flow cytometric analysis (reference value: 0.12 %); format: functional
PC-3 [31] = assay: Induction of apoptosis in human PC-3 cells assessed as necrotic cells up to 10 uM measured at 2 hrs by annexinV-FITC staining based flow cytometric analysis (reference value: 3.69 %); format: functional
PC-3 [32] = assay: Induction of apoptosis in human PC-3 cells assessed as viable cells up to 10 uM measured att 24 hrs by annexinV-FITC staining based flow cytometric analysis (reference value: 91.1 %); format: functional
PC-3 [33] = assay: Induction of apoptosis in human PC-3 cells assessed as necrotic cells up to 10 uM measured at 12 hrs by annexinV-FITC staining based flow cytometric analysis (reference value: 3.69 %); format: functional
PC-3 [34] = assay: Induction of apoptosis in human PC-3 cells assessed as early apoptotic cells at 2.5 uM measured after 24 hrs by annexinV-FITC staining based flow cytometric analysis (reference value: 0.12 %); format: functional
PC-3 [35] = assay: Induction of apoptosis in human PC-3 cells assessed as early apoptotic cells at 10 uM measured after 24 hrs by annexinV-FITC staining based flow cytometric analysis (reference value: 0.12 %); format: functional
PC-3 [36] = assay: Induction of apoptosis in human PC-3 cells assessed as late apoptotic cells at 5 uM measured after 24 hrs by annexinV-FITC staining based flow cytometric analysis (reference value: 1.87 %); format: functional
PC-3 [37] = assay: Induction of apoptosis in human PC-3 cells assessed as necrotic cells up to 10 uM measured at 24 hrs by annexinV-FITC staining based flow cytometric analysis (reference value: 3.69 %); format: functional

COc1cccc2c1C(=O)c1c(O)c3c(c(O)c1C2=O)C[C@@](O)(C(=O)CO)C[C@@H]3O[C@H]1C[C@H](N)[C@H](O)[C@H](C)O1 [DOXORUBICIN HYDROCHLORIDE]
IC50 (NCI-H446): 1.7 µM | IC50 (NCI-H3255): 1.5 µM | IC50 (A549): 1.2 µM | IC50 (PC-3 [1]): 0.4 µM

CC(C)=CCC[C@@H](C)[C@H]1[C@H](O)C[C@@]2(C)[C@@H]3CC[C@H]4C(C)(C)[C@@H](O)CC[C@]4(O)CC3=CC[C@]12C
IC50 (NCI-H446): 7.5 µM | IC50 (NCI-H3255): 9.4 µM | IC50 (A549): 7 µM | IC50 (PC-3 [1]): 6.5 µM

C=C(C)C(=O)CC[C@@H](C)[C@H]1[C@H](O)C[C@@]2(C)[C@@H]3CC[C@H]4C(C)(C)[C@@H](O)CC[C@]4(O)CC3=CC[C@]12C
Activity (PC-3 [2]): 4.44% | Activity (PC-3 [3]): 7.37% | viability at 5 µM (PC-3 [4]): 91.9% | Activity (PC-3 [5]): 9.45% | Activity (PC-3 [6]): 0.76% | Activity (PC-3 [7]): 2.06% | Activity (PC-3 [8]): 2.68% | Activity (PC-3 [9]): 0.39% | Activity (PC-3 [10]): Dose-Dependent Effect | Activity (PC-3 [11]): 88.4% | Activity (PC-3 [12]): 2.63% | Activity (PC-3 [13]): 0.33% | Activity (PC-3 [14]): 88.8% | Activity (PC-3 [15]): 86.5% | viability at 10 µM (PC-3 [16]): 45% | Activity (PC-3 [17]): 4.82% | IC50 (NCI-H446): 5 µM | Activity (PC-3 [18]): 6.67% | IC50 (NCI-H3255): 5.7 µM | Activity (PC-3 [19]): 87.1% | viability at 2.5 µM (PC-3 [20]): 93.2% | Activity (PC-3 [21]): 5.8% | Activity (PC-3 [22]): 4.5% | Activity (PC-3 [23]): 3.3% | Activity (PC-3 [24]): 12.9% | Activity (PC-3 [25]): 71.5% | Activity (PC-3 [26]): 40.3% | Activity (PC-3 [27]): 85.2% | IC50 (A549): 4.4 µM | Activity (PC-3 [28]): 5.96% | Activity (PC-3 [29]): 16.8% | Activity (PC-3 [30]): 1.64% | IC50 (PC-3 [1]): 4.2 µM | Activity (PC-3 [31]): 6.41% | Activity (PC-3 [32]): 83% | Activity (PC-3 [33]): 3.48% | Activity (PC-3 [34]): 0.29% | Activity (PC-3 [35]): 0.78% | Activity (PC-3 [36]): 3.81% | Activity (PC-3 [37]): 4.25%

C=C(C[C@@H](C)[C@H]1[C@H](O)C[C@@]2(C)[C@@H]3CC[C@H]4C(C)(C)[C@@H](O)CC[C@]4(O)CC3=CC[C@]12C)C(C)C
IC50 (NCI-H446): 9.6 µM | IC50 (NCI-H3255): > 10 µM | IC50 (A549): 8.8 µM | IC50 (PC-3 [1]): 8.6 µM
